Source: article PMC12797170, “Potent Competitive Inhibitors of Ecto-5′-nucleotidase (CD73) based on 6‑(Het)aryl-7-deazapurine Ribonucleoside 5′‑O‑Bisphosphonates” (ACS Pharmacology & Translational Science, 2025)
Values after ≈ are worked out from the molar mass of the structure shown.

Tests used:
[1] = Microsomal stability assay, mouse liver microsomes; format: in vitro ADME; conditions: for Mics (m) comp remaining 60 min: 10 μM; for microsomal CLint at 10 µM: pooled liver microsomes, pH 7.4, read-out: Mics (m) CLint
[2] = tested on: HepG2; experiment: In vitro cytotoxic activity; format: cell-based; conditions: Homo sapiens
Procedure: (§1) All the compounds were also tested for their in vitro cytotoxic activity on a small panel of four cancer cell lines (CCRF-CEM, HepG2, HeLa S3, HL-60) and nonmalignant human dermal fibroblasts (NHDF).

[3] = tested on: nonmalignant human dermal fibroblasts (NHDF); experiment: In vitro cytotoxic activity; format: cell-based
Procedure: as §1

[4] = tested on: HeLa S3; experiment: In vitro cytotoxic activity; format: cell-based; conditions: Homo sapiens
Procedure: as §1

[5] = tested on: HL-60; experiment: In vitro cytotoxic activity; format: cell-based; conditions: Homo sapiens
Procedure: as §1

[6] = tested on: CCRF-CEM; experiment: In vitro cytotoxic activity; format: cell-based; conditions: Homo sapiens
Procedure: as §1

[7] = Plasma protein binding, mouse plasma; format: in vitro ADME; conditions: mouse, plasma, mouse plasma protein binding; read-out: PPB (m) (converted)
Procedure: (§2) Plasma protein binding of the investigated compounds was determined using equilibrium dialysis in single-use Rapid Equilibrium Dialysis devices with an 8 kDa molecular weight cutoff (Thermo Fisher Scientific), following the manufacturer’s protocol. In brief, 50 μL of undiluted human plasma (Biowest), spiked with the test compound at a final concentration of 100 μM, was added to the sample chamber, while 300 μL of phosphate-buffered saline (PBS) was placed in the buffer chamber. Devices were incubated for 4 h at 37 °C with gentle shaking.
(§3) After dialysis, 7.5 μL aliquots from both the plasma and buffer chambers were transferred directly into wells of a 384-well plate. To equalize the matrices for downstream processing, 7.5 μL of PBS was added to each plasma aliquot, and 7.5 μL of plasma was added to each buffer aliquot. Proteins were precipitated by adding four volumes of ice-cold methanol to each well, followed by thorough mixing and incubation at – 20 °C for 30 min. Plates were then stored overnight at 8 °C. Prior to analysis, the plate was centrifuged at 2,000 × g for 20 min at 8 °C. […] The fraction of unbound compound was calculated using the following equations: %Free=c(bufferchamber)/c(plasmachamber)*100% %Bound=100%−%Free

[8] = Plasma protein binding, equilibrium dialysis, human plasma; format: in vitro ADME; conditions: undiluted plasma, human plasma protein binding, read-out: PPB (hu) (converted)
Procedure: as §2, §3

[9] = Kinetic solubility in PBS; format: physicochemical; conditions: phosphate-buffered saline, pH 7.4, aqueous buffer, kinetic from dmso stock
Procedure: Test compounds were prepared as 10 mM stock solutions in DMSO and diluted in phosphate-buffered saline (PBS, pH 7.4) to a 100 μM solution, which was then aliquoted in duplicate. The duplicate samples were incubated in Multiscreen PCF Filter Plates (Merck Millipore) with sealed bottom at room temperature on a shaker for 2 h to allow equilibration. Following incubation, the samples were centrifuged into nonsterile, flat-bottom 96-well plates at 2,200 RCF for 12 min. Supernatants were then diluted 1:99 in a solution of 50% acetonitrile containing 0.1% DMSO. The diluted samples were transferred to 384-well Echo plates, which contained prespotted calibration standards prepared by Echo transfer of 10 mM and 1 mM DMSO stock solutions, resulting in calibration points ranging from 0.05 to 4 μM. Samples and standards were subsequently analyzed by Echo-MS.

[10] = Microsomal stability assay, human liver microsomes; format: in vitro ADME; conditions: for Mics (hu) comp remaining 60 min: 10 μM; for microsomal CLint at 10 µM: pooled liver microsomes, pH 7.4, read-out: Mics (hu) CLint
[11] = in vitro; conditions: human, plasma
[12] = in vitro; conditions: mouse, plasma

| SMILES | Mics (m) comp remaining 60 min [1] | microsomal CLint at 10 µM [1] | IC50 [2] | IC50 [3] | IC50 [4] | IC50 [5] | IC50 [6] | fraction unbound at 4 h, 100 µM [7] | fraction unbound at 4 h, 100 µM [8] | solubility at 2 h [9] | Mics (hu) comp remaining 60 min [10] | microsomal CLint at 10 µM [10] | half-life at 10 µM [11] | half-life at 10 µM [12] |
| --- | --- | --- | --- | --- | --- | --- | --- | --- | --- | --- | --- | --- | --- | --- |
| O=P(O)(O)CP(=O)(O)OC[C@H]1O[C@@H](n2cnc3c(-c4cccc5ccccc45)ncnc32)[C@H](O)[C@@H]1O [31A.6, [(5-{[6-(Naphth-1-yl)-9H-purin-9-yl]-β-D-ribofuranosyl}oxy)phosphonomethyl]phosphonic Acid] | 108% | < 1 µL/min/mg | > 10 µM | > 10 µM | > 10 µM | > 10 µM | > 10 µM | 0.628 | 0.093 | 87 µM (≈ 46.7 µg/mL) | 121% | < 1 µL/min/mg | > 2 h | > 2 h |
| N#Cc1ccc(-c2nc(Cl)nc3c2ccn3[C@@H]2O[C@H](COP(=O)(O)CP(=O)(O)O)[C@@H](O)[C@H]2O)c2ccccc12 [7B.34] |  | < 2 µL/min/mg | > 10 µM | > 10 µM | > 10 µM | > 10 µM | > 10 µM | 0.339 | ≤ 0.01 | > 100 µM | 97% | < 2 µL/min/mg | > 2 h | > 2 h |
| O=P(O)(O)CP(=O)(O)OC[C@H]1O[C@@H](n2ccc3c(-c4ccc(-c5ccccc5)cc4)ncnc32)[C@H](O)[C@@H]1O [4A.9] |  |  | > 10 µM | > 10 µM | > 10 µM | > 10 µM | > 10 µM | 0.144 | 0.011 | 64 µM (≈ 35.9 µg/mL) |  |  | > 2 h | > 2 h |
| O=P(O)(O)CP(=O)(O)OC[C@H]1O[C@@H](n2cnc3c(-c4ccc5ccccc5c4)ncnc32)[C@H](O)[C@@H]1O [31A.7] | 87% | 6 µL/min/mg | 4.8 µM | 3.7 µM | > 10 µM | 7.6 µM | > 10 µM | 0.224 | ≤ 0.01 | 86 µM (≈ 46.1 µg/mL) | 106% | < 1 µL/min/mg | > 2 h | > 2 h |
| O=P(O)(O)CP(=O)(O)OC[C@H]1O[C@@H](n2ccc3c(-c4ccncc4)ncnc32)[C@H](O)[C@@H]1O [4A.16] | 80% | 9 µL/min/mg | > 10 µM | > 10 µM | > 10 µM | > 10 µM | > 10 µM | 0.833 | 0.304 | 79 µM (≈ 38.4 µg/mL) | 94% | 3 µL/min/mg | > 2 h | > 2 h |
